Results reported in patent US5922697A, “Compounds, compositions and methods for inhibiting the binding of proteins containing an SH2 domain to cognate phosphorylated proteins” (Warner-Lambert Company, priority 1998, dated 1999).

Assays:
[1] = target: T1, Abl SH2-GST binding to PDGF receptor kinase domain (Homo sapiens, UniProt P00519); experiment: Inhibition of activated PDGF receptor binding to 35S-SH2 domains: Abl SH2-GST
T1 construct: S-X-SH2-GST (X=Src, Ab1, Grb2, p85-N, p85-C, Syp-N, and PLCy-C domains)
T1 sequence (P00519 127-217 limits assumed): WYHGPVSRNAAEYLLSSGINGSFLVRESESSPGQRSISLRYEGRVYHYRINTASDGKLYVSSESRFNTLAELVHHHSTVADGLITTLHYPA
Method: Inhibition of Activated PDGF Receptor Binding to ^35 S-SH2 Domains
The assay was conducted at room temperature for 30 minutes while continuously inverting the plate. The resultant SH2-GST-PDGF receptor kinase complex was separated from excess ^35 S-SH2-GST protein by vacuum filtration and the amount of bound SH2-GST was determined by scintillation counting. Results are expressed as IC50 values and/or % inhibition at specified concentrations in Table 2 below.

[2] = target: T2, Grb2 SH2-GST binding to PDGF receptor kinase domain (Homo sapiens, UniProt P62993); experiment: Inhibition of activated PDGF receptor binding to 35S-SH2 domains: Grb2 SH2-GST; conditions: 35S-Grb2 SH2-GST, immobilized PDGF receptor kinase domain, pH 7.5, room temperature, 30 minutes
T2 construct: S-X-SH2-GST (X=Src, Ab1, Grb2, p85-N, p85-C, Syp-N, and PLCy-C domains)
T2 sequence (P62993 60-152 limits assumed): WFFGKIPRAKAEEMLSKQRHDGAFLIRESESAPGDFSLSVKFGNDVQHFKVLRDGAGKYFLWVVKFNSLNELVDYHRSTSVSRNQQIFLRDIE

[3] = target: T3, Syp(N) SH2-GST binding to PDGF receptor kinase domain (Homo sapiens, UniProt Q06124); experiment: Inhibition of activated PDGF receptor binding to 35S-SH2 domains: Syp(N) SH2-GST; conditions: 35S-Syp(N) SH2-GST, immobilized PDGF receptor kinase domain, pH 7.5, room temperature, 30 minutes
T3 construct: S-X-SH2-GST (X=Src, Ab1, Grb2, p85-N, p85-C, Syp-N, and PLCy-C domains)
T3 sequence (Q06124 6-102): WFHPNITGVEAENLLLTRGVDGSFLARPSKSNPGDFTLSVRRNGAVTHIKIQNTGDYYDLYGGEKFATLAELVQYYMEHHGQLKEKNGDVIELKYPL

[4] = target: T4, PLCγ(C) SH2-GST binding to PDGF receptor kinase domain (Homo sapiens, UniProt P19174); experiment: Inhibition of activated PDGF receptor binding to 35S-SH2 domains: PLCγ(C) SH2-GST; conditions: 35S-PLCγ(C) SH2-GST, immobilized PDGF receptor kinase domain, pH 7.5, room temperature, 30 minutes
T4 construct: S-X-SH2-GST (X=Src, Ab1, Grb2, p85-N, p85-C, Syp-N, and PLCy-C domains)
T4 sequence (P19174 668-756 limits assumed): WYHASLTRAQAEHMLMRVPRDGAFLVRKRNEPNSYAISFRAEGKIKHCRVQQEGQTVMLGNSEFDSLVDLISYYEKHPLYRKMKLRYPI

[5] = target: T5, p85(C) SH2-GST binding to PDGF receptor kinase domain (Homo sapiens, UniProt P27986); experiment: Inhibition of activated PDGF receptor binding to 35S-SH2 domains: p85(C) SH2-GST; conditions: 35S-p85(C) SH2-GST, immobilized PDGF receptor kinase domain, pH 7.5, room temperature, 30 minutes
T5 construct: S-X-SH2-GST (X=Src, Ab1, Grb2, p85-N, p85-C, Syp-N, and PLCy-C domains)
T5 sequence (P27986 624-718 limits assumed): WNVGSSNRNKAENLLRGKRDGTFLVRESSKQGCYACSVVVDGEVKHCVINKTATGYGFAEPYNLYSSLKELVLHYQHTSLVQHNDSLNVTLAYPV

CC(=O)N[C@@H](Cc1ccc(OP(=O)(O)O)cc1)C(=O)NC(C)c1ccc(OCC2CCCCC2)c(C(N)=O)c1 (mixture of isomers) [Example 51, Phosphoric acid mono-(4-{(S)-2-acetylamino-2-[(RS)-1-(3-carbamoyl-4-cyclohexylmethoxy-phenyl)-ethylcarbamoyl]-ethyl}-phenyl) ester]
IC50 [1]: 12.1 µM
IC50 [2]: ~100 µM
IC50 [3]: ~100 µM
IC50 [4]: > 100 µM
IC50 [5]: > 100 µM
